Measured values reported in ChEMBL document CHEMBL1201862, “PubChem BioAssay data set” (2004).
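Cells were grown in 96-well plates and exposed to each compound for 48 hours at five concentrations; endpoints were interpolated linearly between bracketing concentrations, or set to the highest concentration if not reached. Abbreviation: GI50, concentration required for 50% inhibition of growth.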 Activity calls are given as the source filed them. Cut-off read from the data, not from the text of the source: active = GI50 up to about 1.1 µM and inactive = higher.

How the values were obtained:
Assay in all cases: DTP human tumour cell line panel, 48 h
[1] = tested on: MCF7
[2] = tested on: MOLT-4
[3] = tested on: SK-OV-3
[4] = tested on: UACC-257
[5] = tested on: NCI-H23
[6] = tested on: SNB-19
[7] = tested on: HCT-116
[8] = tested on: Hs-578T
[9] = tested on: HOP-92
[10] = tested on: DU-145
[11] = tested on: MDA-MB-231
[12] = tested on: NCI-H522
[13] = tested on: K562
[14] = tested on: BT-549
[15] = tested on: IGROV-1
[16] = tested on: NCI/ADR-RES
[17] = tested on: KM12
[18] = tested on: RPMI-8226
[19] = tested on: COLO 205
[20] = tested on: MDA-MB-435

Row | Compound | GI50 [1] | GI50 [2] | GI50 [3] | GI50 [4] | GI50 [5] | GI50 [6] | GI50 [7] | GI50 [8] | GI50 [9] | GI50 [10] | GI50 [11] | GI50 [12] | GI50 [13] | GI50 [14] | GI50 [15] | GI50 [16] | GI50 [17] | GI50 [18] | GI50 [19] | GI50 [20]
1 | Cc1ccc(S(=O)(=O)NC(=O)NC(CC(N)=O)C(=O)O)cc1 (stereo not given) | > 100 µM (inactive) | > 100 µM (inactive) | > 100 µM (inactive) | > 100 µM (inactive) | > 100 µM (inactive) | > 100 µM (inactive) | > 100 µM (inactive) | > 100 µM (inactive) | > 100 µM (inactive) | > 100 µM (inactive) | > 100 µM (inactive) | > 100 µM (inactive) | > 100 µM (inactive) | > 100 µM (inactive) | > 100 µM (inactive) | > 100 µM (inactive) | > 100 µM (inactive) | > 100 µM (inactive) | > 100 µM (inactive) | 
2 | CN(Cc1cnc2nc(N)nc(N)c2n1)c1ccc(C(=O)NC(CO)CCCO)cc1 (stereo not given) | > 100 µM (inactive) | > 100 µM (inactive) | > 100 µM (inactive) | > 100 µM (inactive) | > 100 µM (inactive) | > 100 µM (inactive) | > 100 µM (inactive) | > 100 µM (inactive) |  | > 100 µM (inactive) | > 100 µM (inactive) |  | > 100 µM (inactive) | > 100 µM (inactive) | > 100 µM (inactive) | > 100 µM (inactive) | > 100 µM (inactive) | > 100 µM (inactive) | > 100 µM (inactive) | > 100 µM (inactive)
3 | CCOC(=O)C1CCCCc2sc(N)c(C#N)c21 (stereo not given) | > 100 µM (inactive) | > 100 µM (inactive) |  | > 100 µM (inactive) | > 100 µM (inactive) | > 100 µM (inactive) | > 100 µM (inactive) | > 100 µM (inactive) | > 100 µM (inactive) |  | > 100 µM (inactive) |  | > 100 µM (inactive) | > 100 µM (inactive) | > 100 µM (inactive) |  | > 100 µM (inactive) | > 100 µM (inactive) | > 100 µM (inactive) | 
4 | N/N=C(\N)Nc1cccc2ccccc12 | > 100 µM (inactive) | > 100 µM (inactive) | > 100 µM (inactive) | > 100 µM (inactive) | > 100 µM (inactive) | > 100 µM (inactive) | > 100 µM (inactive) | > 100 µM (inactive) | 27.9 µM (inactive) | > 100 µM (inactive) | > 100 µM (inactive) |  | > 100 µM (inactive) |  | > 100 µM (inactive) | > 100 µM (inactive) | > 100 µM (inactive) | > 100 µM (inactive) | > 100 µM (inactive) | > 100 µM (inactive)
5 | CC1(C)O[C@@H](CP(c2ccccc2)c2ccccc2)[C@H](CP(c2ccccc2)c2ccccc2)O1 |  | 2.69 µM (inactive) | 15.2 µM (inactive) | 6.98 µM (inactive) | 1.53 µM (inactive) | 4.05 µM (inactive) | 1.84 µM (inactive) |  | 8 µM (inactive) | 11.7 µM (inactive) | 5.85 µM (inactive) | 2.38 µM (inactive) |  | 2.96 µM (inactive) | 2.33 µM (inactive) | 12.4 µM (inactive) | 2.85 µM (inactive) | 3.72 µM (inactive) | 0.632 µM (active) | 6.03 µM (inactive)
6 | O=C(O)c1cccc(S(=O)(=O)NN2C(=O)CSC2c2ccc(Cl)cc2Cl)c1 (stereo not given) | 32.1 µM (inactive) | 28.8 µM (inactive) | > 100 µM (inactive) | 35.2 µM (inactive) | 40.2 µM (inactive) | 49.5 µM (inactive) | 28.7 µM (inactive) | 19 µM (inactive) | > 100 µM (inactive) | > 100 µM (inactive) | 43.5 µM (inactive) | 24.7 µM (inactive) | 24 µM (inactive) | 29.1 µM (inactive) | > 100 µM (inactive) |  | 41.7 µM (inactive) | 97.3 µM (inactive) | > 100 µM (inactive) | 21.2 µM (inactive)
7 | COc1cc(COC(=O)N2CCC2C(=O)O)c([N+](=O)[O-])cc1OC (stereo not given) | > 100 µM (inactive) | > 100 µM (inactive) | > 100 µM (inactive) | > 100 µM (inactive) | > 100 µM (inactive) | > 100 µM (inactive) | > 100 µM (inactive) | > 100 µM (inactive) | > 100 µM (inactive) | > 100 µM (inactive) |  |  | > 100 µM (inactive) | > 100 µM (inactive) | > 100 µM (inactive) | > 100 µM (inactive) | > 100 µM (inactive) | > 100 µM (inactive) | > 100 µM (inactive) | > 100 µM (inactive)
8 | CC(=O)O[C@H]1CC[C@@]2(C)C(=CC[C@@H]3[C@@H]2CC[C@]2(C)c4nc(Cl)ccc4C[C@@H]32)C1 | 0.944 µM (active) | 30.8 µM (inactive) | > 100 µM (inactive) | 32.9 µM (inactive) | 0.867 µM (active) | 93.8 µM (inactive) | 32.6 µM (inactive) |  | 54.7 µM (inactive) | 80.4 µM (inactive) | > 100 µM (inactive) | 24.5 µM (inactive) | 31.1 µM (inactive) | 15.2 µM (inactive) | 89.9 µM (inactive) | 47.4 µM (inactive) | 43.3 µM (inactive) |  | 39.1 µM (inactive) | 41.4 µM (inactive)
9 | NNC1=N/C(=C\c2ccco2)C(=O)N1 | > 100 µM (inactive) | 64.7 µM (inactive) | > 100 µM (inactive) | > 100 µM (inactive) | > 100 µM (inactive) | > 100 µM (inactive) | > 100 µM (inactive) |  |  |  | > 100 µM (inactive) | 50.6 µM (inactive) | 93.3 µM (inactive) | 40.6 µM (inactive) | 65.2 µM (inactive) | > 100 µM (inactive) | > 100 µM (inactive) | 57.3 µM (inactive) | > 100 µM (inactive) | > 100 µM (inactive)
10 | CC(C)OC(=O)NCCn1cc(-c2ccccc2)nn1 | > 100 µM (inactive) | > 100 µM (inactive) |  | > 100 µM (inactive) | > 100 µM (inactive) | > 100 µM (inactive) | > 100 µM (inactive) |  | > 100 µM (inactive) | > 100 µM (inactive) | > 100 µM (inactive) | > 100 µM (inactive) | > 100 µM (inactive) | > 100 µM (inactive) |  | > 100 µM (inactive) | > 100 µM (inactive) | > 100 µM (inactive) | > 100 µM (inactive) | > 100 µM (inactive)
11 | Cc1cc(S(=O)(=O)Nc2cc(N)n[nH]2)c(SCc2nc(N)nc(N(C)C)n2)cc1Cl | > 10 µM (inactive) | > 10 µM (inactive) | > 10 µM (inactive) | > 10 µM (inactive) | > 10 µM (inactive) | > 10 µM (inactive) | > 10 µM (inactive) | > 10 µM (inactive) | > 10 µM (inactive) | > 10 µM (inactive) |  | > 10 µM (inactive) | > 10 µM (inactive) | > 10 µM (inactive) | > 10 µM (inactive) | > 10 µM (inactive) | > 10 µM (inactive) | > 10 µM (inactive) | > 10 µM (inactive) | 
12 | Cn1c(=S)sc2nc3ccccc3n2c1=S | 2.26 µM (inactive) | 5.36 µM (inactive) | 10.4 µM (inactive) | 12.3 µM (inactive) | 12.4 µM (inactive) | 13.7 µM (inactive) | 2.49 µM (inactive) | 21.6 µM (inactive) | 8.93 µM (inactive) | 5.35 µM (inactive) | 19.3 µM (inactive) | 4.21 µM (inactive) | 2 µM (inactive) |  | 12.8 µM (inactive) | 13.4 µM (inactive) | 10.2 µM (inactive) | 3.78 µM (inactive) | 9.51 µM (inactive) | 7.45 µM (inactive)
13 | C=CCOCn1cnc2c(=O)[nH]c(N)nc21 | > 100 µM (inactive) | > 100 µM (inactive) | > 100 µM (inactive) |  | > 100 µM (inactive) | > 100 µM (inactive) | > 100 µM (inactive) | > 100 µM (inactive) |  | > 100 µM (inactive) | > 100 µM (inactive) |  | > 100 µM (inactive) |  | > 100 µM (inactive) | > 100 µM (inactive) | > 100 µM (inactive) | > 100 µM (inactive) | > 100 µM (inactive) | > 100 µM (inactive)
14 | O=C1Nc2ccccc2/C1=c1\[nH]c(=O)/c(=C\c2ccc(OCc3ccccc3)cn2)[nH]c1=O | > 100 µM (inactive) | 52.8 µM (inactive) | 32.3 µM (inactive) | > 100 µM (inactive) | 30.7 µM (inactive) | 31.4 µM (inactive) | 85.7 µM (inactive) | 21.4 µM (inactive) | 26.6 µM (inactive) | 86.5 µM (inactive) | 35.1 µM (inactive) | 94.4 µM (inactive) | 20.4 µM (inactive) |  | 47.3 µM (inactive) | 91.6 µM (inactive) | > 100 µM (inactive) | > 100 µM (inactive) | > 100 µM (inactive) | 44.1 µM (inactive)
15 | COc1c(Cl)c2c(c(OC)c1OC)-c1ccc(OC)c(=O)c(Cl)c1C(NC(C)=O)CC2 (stereo not given) |  | 0.345 µM (active) | 0.133 µM (active) | 0.14 µM (active) | 0.269 µM (active) | 1.43 µM (inactive) | 0.125 µM (active) |  | 0.117 µM (active) |  |  | 0.148 µM (active) | 0.139 µM (active) |  | 0.466 µM (active) |  | 0.104 µM (active) | 0.337 µM (active) | 0.194 µM (active) | 
16 | CC(C)C1=Cc2ccc3c(c2C(=O)C1=O)CCCC3 | 1.59 µM (inactive) | 0.78 µM (active) | 2.92 µM (inactive) | 3.47 µM (inactive) | 9.42 µM (inactive) | 17.9 µM (inactive) | 1.95 µM (inactive) | 20.2 µM (inactive) | 0.998 µM (active) | 17.9 µM (inactive) | 16 µM (inactive) | 2.27 µM (inactive) | 2.44 µM (inactive) |  | 5.27 µM (inactive) | 21.4 µM (inactive) | 17.1 µM (inactive) | 2.12 µM (inactive) | 11.4 µM (inactive) | 0.865 µM (active)
